The text below walks through data of patent publication US20240374655A1, “INTESTINAL MICROBIOTA AND GVHD” (Memorial Sloan-Kettering Cancer Center, priority 2014, published 2024).

“Also recorded” adds a separate entry of the source.

Series [1] is described as follows: Administration of SCFA to mitigate murine GVHD (preliminary experiments). The series is classed as in vivo, mice. To be noted: via drinking water (butyrate also via enema); data not shown. On the procedure: Preliminary experiments were done to test the impact of administration of SCFA on murine GVHD. […] Sodium acetate (150 mM) will be delivered via the drinking water of mice beginning 2 weeks prior to BMT. Mice will then be irradiated and transplanted with continued supplementation of sodium acetate. Outcomes that will be evaluated in mice include GVHD clinical scores, survival, and day 14 and 28 tissue pathology. Kaplan-Meier curves will display the overall survival for the two groups. In addition, the area under the curve (AUC) will summarize the weekly total GVHD score from the time of infusion to week 13 for each mouse. Mice will be euthanized to evaluate for pathological evidence of GVHD, as well as to quantify and characterize large intestinal Tregs and alloreactive effector T cells by flow cytometry on days 14 and 28.

Series [2] in a line: Antibiotic treatment in MHC-matched minor antigen-mismatched allo-HSCT GVHD model (C57BL/6 into 129S1). It is filed as in vivo. On the procedure: FIGS. 16A-16J Imipenem treatment, compared to aztreonam treatment, suppresses anaerobic commensals and elevates GVHD severity in mice. (A) Flora composition analysis using 16S rRNA sequencing prior to and after treatment with the indicated antibiotics in healthy C57BL/6 mice. Mice were treated with subcutaneous (SC) injections of each antibiotic twice a day for two days (500 mg/kg for pip/tazo and 100 mg/kg for others) and stool samples were collected the following day. Values represent mean±SEM (n=3-4). *, P<0.05; **, P<0.01; ****, P<0.0001. Data are representative of two independent experiments. (B to J) Lethally irradiated 129S1 recipients were transplanted with MHC matched C57BL/6 T-cell depleted bone marrow (TCD-BM) cells and 1×10^6 C57BL/6 T cells. Control mice received TCD-BM only. Recipients were treated with imipenem or aztreonam (100 mg/kg, SC, 3 times a week from day 10 to day 24 following allo-HSCT). (B) Comparison of overall survival, with combined data from three independent experiments (n=15-43). ****, P<0.0001. (C) Mice with GVHD treated with antibiotics were sacrificed on day 21 and GVHD histology scores in target organs were quantified by a blinded pathologist. Data are combined from three independent experiments (n=5-20). *, P<0.05. (D) Stool samples obtained from mice treated with imipenem or aztreonam similarly to those in B were collected on day 21 and analyzed by 16S rRNA gene sequencing, followed by principal coordinate analysis of weighted and normalized UniFrac distances. (E and F) Differential taxonomic abundance between aztreonam treated and imipenem treated recipients was analyzed by (E) linear discriminate analysis coupled with effect size measurements (LEfSe) and (F) by LEfSe projected as a cladogram. […] (I) Stool samples collected from mice with GVHD treated with antibiotics were collected on day 21, and evaluated by metagenomic shotgun sequence analysis, comparison of bacterial species abundance determined by taxonomy. […] (J) Principal component analysis of quantification of sequence reads from KEGG gene orthologs comparing samples from mice treated with aztreonam and imipenem.
(A to G) Lethally irradiated 129S1 recipients were transplanted with C57BL/6 TCD-BM cells with 1×10^6 C57BL/6 T cells. […] (A) Colonic lamina propria-infiltrating leukocytes from recipients were analyzed on day 21 by flow cytometry. […] (C) Lamina propria-infiltrating leukocytes from the colon on day 21 were enriched for CD11b and CD11e simultaneously using a mixture of magnetic beads and IL-23 transcripts were quantified by real time PCR. […] (D) Immunofluorescent staining was used to quantify pSTAT3, CD3, and DAPI positive cells in colonic tissue collected on day 21. […]

The nature of series [3]: Retrospective cohort of 283 allo-HSCT patients treated for neutropenic fever: GVHD-related mortality by antibiotic type. To be noted: compared to antibiotics with reduced activity against anaerobes (aztreonam, cefepime). It is filed as in vivo, human. The source says: (§1) (A) A retrospective cohort was identified of 283 adult patients who received non-T cell depleted allo-HSCT at our center from 1994 to 2013 and received antibiotics for neutropenic fever. Patients were stratified by exposure to antibiotics with significant activity against anaerobes. Outcomes indicated were depicted by Kaplan-Meier plots and curves compared by the logrank test. (B to G) Six representative clinical cases with time courses depicted of fecal microbiota composition and administration of antibiotic treatments during the course of allo-HSCT. […] (H) Change in abundance of Clostridiales in paired fecal samples from patients undergoing allo-HSCT collected prior to and following treatment with the indicated antibiotics.
In one study, subjects analyzed retrospectively for impact of antibiotics on clinical outcomes consisted of 283 adult patients undergoing all-HSCT at Memorial Sloan Kettering Cancer Center (MSKCC) from 1994 to 2013. […]
GVHD was diagnosed clinically, confirmed pathologically by biopsy whenever possible, and classified according to historical consensus criteria as described previously (see Rowlings P A, Przepiorka D, Klein J P, et al. IBMTR Severity Index for grading acute graft-versus host disease: retrospective comparison with Glucksberg grade. Br J Haematol. 1997). […] Disease risk was determined according to the ASBMT RFI 2014 Disease Classification. […]

A further series relates to Clostridiales. The series is described as follows: Change in Clostridiales abundance in paired stool samples of allo-HSCT patients before and after starting antibiotics. It is filed as in vivo, human. To be noted: before vs after starting the antibiotic; compared to aztreonam.
Text: as §1
For each stool specimen, DNA was purified using a phenol-chloroform extraction technique with mechanical disruption (bead-beating) based on a previously described protocol (60). Samples were analyzed using the 454 GS FLX Titanium platform to sequence the V1-V3 region of the bacterial 16S rRNA gene or were alternatively analyzed using the Illumina MiSeq platform to sequence the V4-V5 region of the 16S rRNA gene. Sequence data were compiled and processed using mothur version 1.34 (61), screened and filtered for quality (62). Operational taxonomic units (OTUs) were classified to the species level (63) using a modified form of the Greengenes reference database (64). Principal component analysis was performed upon a weighted and normalized Unifrac (65) distance matrix of OTU abundance in R software. Data from this study has been stored in the NCBI Sequence Read Archive (see url: www.ncbi.nlm.nih.gov/sra).
HSCT patients were on intestinal bacterial composition. In 2009, our center began to prospectively collect weekly stool samples from patients undergoing allo-HSCT. From this specimen bank, we identified paired stool samples collected from patients prior to as well as following initiation of specific antibiotics during the course of allo-HSCT. […]

For series [4] the following is noted: metronidazole added to ciprofloxacin; cited from earlier work.
The subject of series [5] is intestinal microbiota (Clostridiales, Enterococcus). The series is described as follows: Flora composition (16S rRNA sequencing of stool) after antibiotic treatment of healthy mice. The series is classed as in vivo, C57BL/6 mice. On the procedure:
FIGS. 16A-16J Imipenem treatment, compared to aztreonam treatment, suppresses anaerobic commensals and elevates GVHD severity in mice. (A) Flora composition analysis using 16S rRNA sequencing prior to and after treatment with the indicated antibiotics in healthy C57BL/6 mice. Mice were treated with subcutaneous (SC) injections of each antibiotic twice a day for two days (500 mg/kg for pip/tazo and 100 mg/kg for others) and stool samples were collected the following day. Values represent mean±SEM (n=3-4). *, P<0.05; **, P<0.01; ****, P<0.0001. Data are representative of two independent experiments. (B to J) Lethally irradiated 129S1 recipients were transplanted with MHC matched C57BL/6 T-cell depleted bone marrow (TCD-BM) cells and 1×10^6 C57BL/6 T cells. Control mice received TCD-BM only. Recipients were treated with imipenem or aztreonam (100 mg/kg, SC, 3 times a week from day 10 to day 24 following allo-HSCT). (B) Comparison of overall survival, with combined data from three independent experiments (n=15-43). ****, P<0.0001. (C) Mice with GVHD treated with antibiotics were sacrificed on day 21 and GVHD histology scores in target organs were quantified by a blinded pathologist. Data are combined from three independent experiments (n=5-20). *, P<0.05. (D) Stool samples obtained from mice treated with imipenem or aztreonam similarly to those in B were collected on day 21 and analyzed by 16S rRNA gene sequencing, followed by principal coordinate analysis of weighted and normalized UniFrac distances. (E and F) Differential taxonomic abundance between aztreonam treated and imipenem treated recipients was analyzed by (E) linear discriminate analysis coupled with effect size measurements (LEfSe) and (F) by LEfSe projected as a cladogram. Data are representative from more than five independent experiments in D to F. (G and H) Comparisons of bacterial abundance at the phylogenetic levels of (G) order, and (H) genus are shown. Data are combined from 6 independent experiments (n=32-36). ***, P<0.001. (I) Stool samples collected from mice with GVHD treated with antibiotics were collected on day 21, and evaluated by metagenomic shotgun sequence analysis, comparison of bacterial species abundance determined by taxonomy. Numbers 1 through 6 along the x-axis represent the individual subjects. (J) Principal component analysis of quantification of sequence reads from KEGG gene orthologs comparing samples from mice treated with aztreonam and imipenem.
To further explore causality and mechanisms of the effects of antibiotics with anaerobic activity on GVHD, we turned to experiments in mice. […] Mice were treated by subcutaneous (SC) injections of each antibiotic twice a day for two days (500 mg/kg for pip/tazo and 100 mg/kg for others) and stool samples were collected, followed by 16S rRNA gene amplification and sequence analysis.

[6] abbreviates: 100 mg/kg SC twice a day for two days.

Regarding `CC(=O)O` [acetate], the “Benefit on murine GVHD” value in series [1] was “notable benefit”.
Turning to `C[C@@H](O)[C@H]1C(=O)N2C(C(=O)O)=C(SCCN=CN)C[C@H]12` [imipenem, imipenem-cilastatin], the “Mortality / overall survival” value in series [2] (100 mg/kg SC 3 times a week from day 10, compared to aztreonam, within 2 weeks of starting treatment) was “significantly increased mortality; also recorded: aggravated mortality”. In series [2] (mouse, in vivo), the “Bacteria past the colonic epithelial barrier” value is recorded as “dissemination of bacteria past the colonic epithelial barrier”; the “GVHD pathology in skin, liver and small intestine” value is recorded as “no significant differences”. In series [3], the GVHD-related mortality result was “increased GVHD-related mortality”.
For `Cc1ncc([N+](=O)[O-])n1CCO` [metronidazole], the “Change in Clostridiales abundance in stool of patients” value with Clostridiales is reported as “significantly lower abundances of Clostridiales”. Moreover, the “Acute GVHD” value in series [4] is “significant reduction in acute GVHD”. In series [5] (setting [6]), the “Abundance of Clostridiales in stool” value is “significantly reduced” and the “Abundance of Enterococcus in stool” value is given as “increased”.
With piperacillin-tazobactam [pip/tazo], the “Change in Clostridiales abundance in stool of patients” value in the series with Clostridiales was “significantly lower abundances of Clostridiales; also recorded: more severe loss”. Besides, the GVHD-related mortality entry in series [3] is on record as “increased GVHD-related mortality”. The “Amplifiable bacterial DNA in stool” value in series [5] (500 mg/kg SC twice a day for two days) is listed as “no amplifiable bacterial DNA”.
